Test: refractive index (Na D-line) (dimensionless); xn = mol fraction of the nth substance listed
Conditions: 101 kPa, Liquid, Standard Abbe refractometry

CCCCn1cc[n+](C)c1.[O-][Cl+3]([O-])([O-])[O-] [1-butyl-3-methylimidazolium perchlorate] + CCO
refractive index
Conditions | x2 = 0.1 | x2 = 0.165 | x2 = 0.291 | x2 = 0.401 | x2 = 0.479
283.15 K | 1.475 | 1.4725 | 1.468 | 1.4625 | 1.459
288.15 K | 1.4738 | 1.4715 | 1.4667 | 1.4612 | 1.4575
293.15 K | 1.4725 | 1.47 | 1.4655 | 1.4595 | 1.4563
298.15 K | 1.471 | 1.4687 | 1.464 | 1.458 | 1.455
303.15 K | 1.4697 | 1.4673 | 1.4627 | 1.4568 | 1.4535
308.15 K | 1.4685 | 1.466 | 1.4615 | 1.4555 | –
313.15 K | 1.467 | 1.4648 | 1.46 | 1.454 | –
318.15 K | 1.4655 | 1.4637 | 1.4587 | – | –
323.15 K | 1.4645 | 1.462 | 1.457 | – | –
328.15 K | 1.463 | 1.4608 | 1.456 | – | –
333.15 K | 1.4615 | 1.4595 | 1.4545 | – | –
338.15 K | 1.4603 | 1.458 | 1.4532 | – | –
343.15 K | 1.459 | 1.4565 | 1.4518 | – | –

CCCCCCCC[n+]1ccn(C)c1.F[B-](F)(F)F [1-methyl-3-octylimidazolium tetrafluoroborate] + CCO
refractive index
Conditions | x2 = 0.081 | x2 = 0.161 | x2 = 0.315 | x2 = 0.511 | x2 = 0.612 | x2 = 0.753
283.15 K | 1.4335 | 1.4315 | 1.43 | 1.4265 | 1.4225 | 1.4132
288.15 K | 1.4323 | 1.4305 | 1.4288 | 1.425 | 1.4212 | 1.4125
293.15 K | 1.431 | 1.4292 | 1.4273 | 1.4237 | 1.42 | 1.411
298.15 K | 1.4295 | 1.428 | 1.426 | 1.423 | 1.4185 | 1.4098
303.15 K | 1.4284 | 1.427 | 1.4245 | 1.4208 | 1.4172 | 1.4085
308.15 K | 1.4268 | 1.4255 | 1.423 | 1.4195 | 1.416 | 1.4072
313.15 K | 1.4255 | 1.424 | 1.4219 | 1.418 | 1.4143 | 1.407
318.15 K | 1.424 | 1.4225 | 1.4205 | 1.4168 | 1.413 | 1.4065
323.15 K | 1.4225 | 1.421 | 1.419 | 1.415 | 1.4115 | 1.4055
328.15 K | 1.4213 | 1.42 | 1.4178 | 1.4137 | 1.41 | 1.4045
333.15 K | 1.4205 | 1.4188 | 1.416 | 1.4125 | 1.4085 | 1.404
338.15 K | 1.419 | 1.4173 | 1.4145 | 1.4118 | 1.4078 | 1.4033
343.15 K | 1.4175 | 1.416 | 1.4132 | 1.411 | 1.4065 | 1.402

— the NIST ThermoML archive (doi:10.1021/je700521t)
